According to paper PMC3177990 (Biochemistry, 2011):

Molecular target: human secretin receptor (Homo sapiens, UniProt P47872)
Experiment: cAMP responses in CHO-SecR cells
Type: cell-based
Details: Figure 4, responses not significantly different from 1

human secretin receptor, sequence (P47872 23-440): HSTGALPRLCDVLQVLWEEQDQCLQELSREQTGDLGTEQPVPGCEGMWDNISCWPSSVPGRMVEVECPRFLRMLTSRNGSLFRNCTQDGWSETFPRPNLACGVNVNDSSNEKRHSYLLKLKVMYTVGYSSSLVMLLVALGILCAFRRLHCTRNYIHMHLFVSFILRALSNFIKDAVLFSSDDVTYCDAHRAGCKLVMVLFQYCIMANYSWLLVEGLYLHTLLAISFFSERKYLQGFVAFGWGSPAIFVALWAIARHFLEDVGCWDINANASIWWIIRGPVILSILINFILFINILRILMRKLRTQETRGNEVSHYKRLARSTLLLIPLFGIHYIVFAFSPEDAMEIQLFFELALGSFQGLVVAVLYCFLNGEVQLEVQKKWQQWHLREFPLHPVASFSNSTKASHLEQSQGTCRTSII

Substance | agonist character, cAMP responses compared with [Y^10]sec(1-27) (1)
cyclic [Glu^16,Lys^20][Tyr^10]human secretin(1-27) [compound 14] | full agonists
cyclic [Glu^16,Lys^20]human secretin(1-27) [compound 15] | full agonists
